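Compound exposure: 48 hours, 5 concentrations, 96-well plates. GI50 marks 50% less growth. TGI: total growth inhibition.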
Assays:
Experiment in all cases: NCI anticancer screen, dose series, 48 h
SNB-19 CNS = test system: SNB-19 CNS
SK-MEL-28 melanoma = test system: SK-MEL-28 melanoma
SK-MEL-2 melanoma = test system: SK-MEL-2 melanoma
OVCAR-3 ovarian = test system: OVCAR-3 ovarian
SK-MEL-5 melanoma = test system: SK-MEL-5 melanoma
HCT-15 colon = test system: HCT-15 colon
HCT-116 colon = test system: HCT-116 colon
786-0 renal = test system: 786-0 renal
RPMI-8226 leukemia = test system: RPMI-8226 leukemia
HCC-2998 colon = test system: HCC-2998 colon
SF-539 CNS = test system: SF-539 CNS
CAKI-1 renal = test system: CAKI-1 renal
HOP-92 NSCLC = test system: HOP-92 NSCLC
MALME-3M melanoma = test system: MALME-3M melanoma
ACHN renal = test system: ACHN renal
HOP-62 NSCLC = test system: HOP-62 NSCLC
M14 melanoma = test system: M14 melanoma
NCI-H23 lung = test system: NCI-H23 lung
SK-OV-3 ovarian = test system: SK-OV-3 ovarian
RXF 393 renal = test system: RXF 393 renal
U251 CNS = test system: U251 CNS
OVCAR-5 ovarian = test system: OVCAR-5 ovarian
OVCAR-4 ovarian = test system: OVCAR-4 ovarian
PC-3 prostate = test system: PC-3 prostate
HT29 colon = test system: HT29 colon
MDA-MB-231 breast = test system: MDA-MB-231 breast
MCF7 breast = test system: MCF7 breast
HS 578T breast = test system: HS 578T breast
SN12C renal = test system: SN12C renal
T-47D breast = test system: T-47D breast
OVCAR-8 ovarian = test system: OVCAR-8 ovarian
BT-549 breast = test system: BT-549 breast
COLO 205 colon = test system: COLO 205 colon
K-562 leukemia = test system: K-562 leukemia
NCI/ADR-RES ovarian = test system: NCI/ADR-RES ovarian
HL-60(TB) leukemia = test system: HL-60(TB) leukemia
SW-620 colon = test system: SW-620 colon
UACC-257 melanoma = test system: UACC-257 melanoma
NCI-H460 lung = test system: NCI-H460 lung
CCRF-CEM leukemia = test system: CCRF-CEM leukemia
NCI-H226 lung = test system: NCI-H226 lung
EKVX NSCLC = test system: EKVX NSCLC
MOLT-4 leukemia = test system: MOLT-4 leukemia
A498 renal = test system: A498 renal
A549 NSCLC = test system: A549 NSCLC
UACC-62 melanoma = test system: UACC-62 melanoma
NCI-H522 lung = test system: NCI-H522 lung
SF-268 CNS = test system: SF-268 CNS
KM12 colon = test system: KM12 colon
LOX IMVI melanoma = test system: LOX IMVI melanoma
UO-31 renal = test system: UO-31 renal
DU-145 prostate = test system: DU-145 prostate
SNB-75 CNS = test system: SNB-75 CNS
TK-10 renal = test system: TK-10 renal
SF-295 CNS = test system: SF-295 CNS
MDA-MB-435 = test system: MDA-MB-435

Q: What does the source list for `COc1cc2c3c(n(CCCN=[N+]=[N-])c(=O)c2cc1OC)-c1ccc(C#N)cc1C3=O`?
A: GI50 (SNB-19 CNS): 37 µM; TGI (SNB-19 CNS): > 100 µM; GI50 (SK-MEL-28 melanoma): > 100 µM; TGI (SK-MEL-28 melanoma): > 100 µM; GI50 (SK-MEL-2 melanoma): 16.6 µM; TGI (SK-MEL-2 melanoma): 86.1 µM; GI50 (OVCAR-3 ovarian): 17 µM; TGI (OVCAR-3 ovarian): 58.2 µM; GI50 (SK-MEL-5 melanoma): > 100 µM; TGI (SK-MEL-5 melanoma): > 100 µM; GI50 (HCT-15 colon): 57.9 µM; TGI (HCT-15 colon): > 100 µM; GI50 (HCT-116 colon): 24.1 µM; TGI (HCT-116 colon): > 100 µM; GI50 (786-0 renal): 13.1 µM; TGI (786-0 renal): 33.7 µM; GI50 (RPMI-8226 leukemia): > 100 µM; TGI (RPMI-8226 leukemia): > 100 µM; GI50 (HCC-2998 colon): 44.6 µM; TGI (HCC-2998 colon): > 100 µM; GI50 (SF-539 CNS): 17.4 µM; TGI (SF-539 CNS): 47.2 µM; GI50 (CAKI-1 renal): 32 µM; TGI (CAKI-1 renal): > 100 µM; GI50 (HOP-92 NSCLC): 21.2 µM; TGI (HOP-92 NSCLC): 79.1 µM; GI50 (MALME-3M melanoma): 70.8 µM; TGI (MALME-3M melanoma): > 100 µM; GI50 (ACHN renal): 3.3 µM; TGI (ACHN renal): 13.1 µM; GI50 (HOP-62 NSCLC): 14.2 µM; TGI (HOP-62 NSCLC): 33.3 µM; GI50 (M14 melanoma): 46.7 µM; TGI (M14 melanoma): > 100 µM; GI50 (NCI-H23 lung): 8.75 µM; TGI (NCI-H23 lung): 22 µM; GI50 (SK-OV-3 ovarian): 15.5 µM; TGI (SK-OV-3 ovarian): 40.3 µM; GI50 (RXF 393 renal): 12.2 µM; TGI (RXF 393 renal): 30.2 µM; GI50 (U251 CNS): 10.5 µM; TGI (U251 CNS): 27.6 µM; GI50 (OVCAR-5 ovarian): 88.7 µM; TGI (OVCAR-5 ovarian): > 100 µM; GI50 (OVCAR-4 ovarian): > 100 µM; TGI (OVCAR-4 ovarian): > 100 µM; GI50 (PC-3 prostate): > 100 µM; TGI (PC-3 prostate): > 100 µM; GI50 (HT29 colon): > 100 µM; TGI (HT29 colon): > 100 µM; GI50 (MDA-MB-231 breast): 2.93 µM; TGI (MDA-MB-231 breast): 16.2 µM; GI50 (MCF7 breast): > 100 µM; TGI (MCF7 breast): > 100 µM; GI50 (HS 578T breast): 9.67 µM; TGI (HS 578T breast): 38.9 µM; GI50 (SN12C renal): 15.7 µM; TGI (SN12C renal): > 100 µM; GI50 (T-47D breast): > 100 µM; TGI (T-47D breast): > 100 µM; GI50 (OVCAR-8 ovarian): 49.1 µM; TGI (OVCAR-8 ovarian): > 100 µM; GI50 (BT-549 breast): 12.9 µM; TGI (BT-549 breast): 28 µM; GI50 (COLO 205 colon): 92.3 µM; TGI (COLO 205 colon): > 100 µM; GI50 (K-562 leukemia): > 100 µM; TGI (K-562 leukemia): > 100 µM; GI50 (NCI/ADR-RES ovarian): 72.4 µM; TGI (NCI/ADR-RES ovarian): > 100 µM; GI50 (HL-60(TB) leukemia): > 100 µM; TGI (HL-60(TB) leukemia): > 100 µM; GI50 (SW-620 colon): > 100 µM; TGI (SW-620 colon): > 100 µM; GI50 (UACC-257 melanoma): > 100 µM; TGI (UACC-257 melanoma): > 100 µM; GI50 (NCI-H460 lung): 27.7 µM; TGI (NCI-H460 lung): > 100 µM; GI50 (CCRF-CEM leukemia): > 100 µM; TGI (CCRF-CEM leukemia): > 100 µM; GI50 (NCI-H226 lung): 42.1 µM; TGI (NCI-H226 lung): > 100 µM; GI50 (EKVX NSCLC): 28.9 µM; TGI (EKVX NSCLC): > 100 µM; GI50 (MOLT-4 leukemia): > 100 µM; TGI (MOLT-4 leukemia): > 100 µM; GI50 (A498 renal): 18.5 µM; TGI (A498 renal): 58.5 µM; GI50 (A549 NSCLC): > 100 µM; TGI (A549 NSCLC): > 100 µM; GI50 (UACC-62 melanoma): 12.4 µM; TGI (UACC-62 melanoma): 37.4 µM; GI50 (NCI-H522 lung): 14.5 µM; TGI (NCI-H522 lung): > 100 µM; GI50 (SF-268 CNS): 17.7 µM; TGI (SF-268 CNS): > 100 µM; GI50 (KM12 colon): > 100 µM; TGI (KM12 colon): > 100 µM; GI50 (LOX IMVI melanoma): 16.9 µM; TGI (LOX IMVI melanoma): 46 µM; GI50 (UO-31 renal): > 100 µM; TGI (UO-31 renal): > 100 µM; GI50 (DU-145 prostate): 34.3 µM; TGI (DU-145 prostate): > 100 µM; GI50 (SNB-75 CNS): 4.27 µM; TGI (SNB-75 CNS): 21.4 µM; GI50 (TK-10 renal): 17 µM; TGI (TK-10 renal): 34.9 µM; GI50 (SF-295 CNS): 14.1 µM; TGI (SF-295 CNS): 31.5 µM; GI50 (MDA-MB-435): > 100 µM; TGI (MDA-MB-435): > 100 µM
